From patent publication US8324186B2, “4-azetidinyl-1-heteroatom linked-cyclohexane antagonists of CCR2” (Janssen Pharmaceutica N.V., priority 2009, dated 2012)

Biological target: T1, CCR2 (Homo sapiens, UniProt P41597)
T1 construct: host or cells: THP-1 human monocytic cells
Experiment: MCP-1 Receptor Binding Assay in THP-1 Cells (125I-MCP-1 displacement)
Settings: 0.5 nM 125I labeled MCP-1, 2 hours at 30° C., read-out: CCR2 Binding, Inhibition of MCP-1 Binding IC50
Description: Compounds of the invention were subjected to various representative biological tests. The results of these tests are intended to illustrate the invention in a non-limiting fashion. MCP-1 Receptor Binding Assay in THP-1 Cells
Human monocytic cell line THP-1 cells were obtained from American Type Culture Collection (Manassas, Va., USA). The THP-1 cells were grown in RPMI-1640 (RPMI: Roswell Park Memorial Institute Medium-cell culture growth media) supplemented with 10% fetal bovine serum in a humidified 5% CO2 atmosphere at 37° C. The cell density was maintained […].
THP-1 (cells were incubated with 0.5 nM ^125I labeled MCP-1 (Perkin-Elmer Life Sciences, Inc. Boston, Mass.) in the presence of varying concentrations of either unlabeled MCP-1 (R & D Systems, Minneapolis, Minn.) or test compound for 2 hours at 30° C. in a 96 well plate. Cells were then harvested onto a filter plate, dried, and 20 μL of Microscint 20 was added to each well. Plates were counted in a TopCount NXT, Microplate Scintillation & Luminescence Counter (Perkin-Elmer Life Sciences, Inc. Boston, Mass.). Blank values (buffer only) were subtracted from all values and drug treated values were compared to vehicle treated values. 1 μM cold MCP-1 was used for nonspecific binding.
Table 1 lists IC50 values for inhibition of MCP-1 binding to CCR2 obtained for test compounds of the invention. Where an IC50 value was not obtained for a particular compound, the percent inhibition is provided at a test concentration of 25 μM.

T1 sequence (P41597 whole entry): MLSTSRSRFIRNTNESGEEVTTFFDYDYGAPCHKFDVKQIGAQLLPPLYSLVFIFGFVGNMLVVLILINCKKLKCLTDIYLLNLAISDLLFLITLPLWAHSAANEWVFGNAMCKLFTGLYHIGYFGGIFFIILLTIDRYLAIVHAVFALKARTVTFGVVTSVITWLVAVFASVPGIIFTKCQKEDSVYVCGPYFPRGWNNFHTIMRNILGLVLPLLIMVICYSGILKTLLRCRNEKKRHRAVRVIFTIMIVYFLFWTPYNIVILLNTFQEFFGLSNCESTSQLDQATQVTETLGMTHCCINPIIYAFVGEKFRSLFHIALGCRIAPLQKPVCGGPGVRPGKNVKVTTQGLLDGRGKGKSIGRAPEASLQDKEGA

IC50 [nM] | Compound
2700 | O=C(CNC(=O)c1cccc(C(F)(F)F)c1)NC1CN(C2CCC(Oc3ccncn3)CC2)C1 (single isomer, unassigned) [Example 7a, N-({1-[4-(Pyrimidin-4-yloxy)-cyclohexyl]-azetidin-3-ylcarbamoyl}-methyl)-3-trifluoromethyl-benzamide]
280 | Cc1ccc(=O)n(C2CCC(N3CC(NC(=O)CNC(=O)c4cccc(C(F)(F)F)c4)C3)CC2)c1 (centres unmarked) [Example 11, N-({1-[4-(5-Methyl-2-oxo-2H-pyridin-1-yl)-cyclohexyl]-azetidin-3-ylcarbamoyl}-methyl)-3-trifluoromethyl-benzamide]
130 | O=C(CNC(=O)c1cccc(C(F)(F)F)c1)NC1CN(C2CCC(n3ccccc3=O)CC2)C1 (single isomer, unassigned) [Example 1a, N-({1-[4-(2-Oxo-2H-pyridin-1-yl)-cyclohexyl]-azetidin-3-ylcarbamoyl}-methyl)-3-trifluoromethyl-benzamide]
6500 | O=C(CNC(=O)c1cccc(C(F)(F)F)c1)NC1CN(C2CCC(n3cc(C(F)(F)F)ccc3=O)CC2)C1 (single isomer, unassigned) [Example 21a, N-({1-[4-(2-Oxo-5-trifluoromethyl-2H-pyridin-1-yl)-cyclohexyl]-azetidin-3-ylcarbamoyl}-methyl)-3-trifluoromethyl-benzamide]
1000 | N#Cc1ccc(=O)n(C2CCC(N3CC(NC(=O)CNC(=O)c4cccc(C(F)(F)F)c4)C3)CC2)c1 (centres unmarked) [Example 10, N-({1-[4-(5-Cyano-2-oxo-2H-pyridin-1-yl)-cyclohexyl]-azetidin-3-ylcarbamoyl}-methyl)-3-trifluoromethyl-benzamide]
170 | Cc1cnn(C2CCC(N3CC(NC(=O)CNC(=O)c4cccc(C(F)(F)F)c4)C3)CC2)c1 (single isomer, unassigned) [Example 27a, N-({1-[4-(4-Methyl-pyrazol-1-yl)-cyclohexyl]-azetidin-3-ylcarbamoyl}-methyl)-3-trifluoromethyl-benzamide]
5400 | O=C(CNC(=O)c1cccc(C(F)(F)F)c1)NC1CN(C2CCC(n3ccc(O)cc3=O)CC2)C1 (single isomer, unassigned) [Example 15a, N-({1-[4-(4-Hydroxy-2-oxo-2H-pyridin-1-yl)-cyclohexyl]-azetidin-3-ylcarbamoyl}-methyl)-3-trifluoromethyl-benzamide]
380 | O=C(CNC(=O)c1cccc(C(F)(F)F)c1)NC1CN(C2CCC(n3cnccc3=O)CC2)C1 (single isomer, unassigned) [Example 6a, N-({1-[4-(6-Oxo-6H-pyrimidin-1-yl)-cyclohexyl]-azetidin-3-ylcarbamoyl}-methyl)-3-trifluoromethyl-benzamide]
1100 | O=C(CNC(=O)c1cccc(C(F)(F)F)c1)NC1CN(C2CCC(n3cc(Cl)ccc3=O)CC2)C1 (single isomer, unassigned) [Example 22a, N-({1-[4-(2-Oxo-5-chloro-2H-pyridin-1-yl)-cyclohexyl]-azetidin-3-ylcarbamoyl}-methyl)-3-trifluoromethyl-benzamide]
1500 | O=C(CNC(=O)c1cccc(C(F)(F)F)c1)NC1CN(C2CCC(NC(=O)Nc3ccc4c(c3)OCO4)CC2)C1 (centres unmarked) [Example 36, N-({1-[4-(3-Benzo[1,3]dioxol-5-yl-ureido)-cyclohexyl]-azetidin-3-ylcarbamoyl}-methyl)-3-trifluoromethyl-benzamide]
110 | Cc1ccn(C2CCC(N3CC(NC(=O)CNC(=O)c4cccc(C(F)(F)F)c4)C3)CC2)c(=O)c1 (centres unmarked) [Example 20, N-({1-[4-(4-Methyl-2-oxo-2H-pyridin-1-yl)-cyclohexyl]-azetidin-3-ylcarbamoyl}-methyl)-3-trifluoromethyl-benzamide]
